Results: patent US4590207A, “Therapeutic and/or preventive ophthalmic solution for intraocular hypertension and glaucoma” (Eisai Co., Ltd., priority 1984, dated 1986)

Tests used:
ddy mice = assay: Acute toxicity (intravenous), mortality 24 hours after administration; format: in vivo; conditions: for mortality: 24 hours
Method: 500 mg/kg and 1,000 mg/kg of each of isosorbide-5-mononitrate (5-ISMN) and isosorbide-2-mononitrate (2-ISMN) were intravenously injected to ddy mice of approximately 20 g in body weight to observe their toxicity. The mortality was determined 24 hours after the administration.

[1] = test system: intraocular hypertension of rabbits caused by α-chymotrypsin; assay: Effect on intraocular hypertension of rabbits caused by α-chymotrypsin (intraocular tension); format: in vivo, male white rabbits; design: Intraocular tension: unit not given here; conditions: for Intraocular tension: 35 μl instilled, mean of five animals ± standard error; for effects of lowering intraocular tension (conclusion): ophthalmic solution containing 5-ISMN or 2-ISMN
Method: Models of intraocular hypertension were prepared by the use of male white rabbits of approximately 2.5 kg in body weight according to the method reported by Sears (cf. Sears, D. and Sears, M., Am. J. Ophthalmol., Vol. 77, No. 3, p. 378 to 383, 1974). A rabbit was anesthetized by intravenously injecting 20 mg/kg of pentobarbital sodium and 2% of lidocaine was instilled in the left eye of the animal to anesthetize locally. A volume of 0.5 ml physiological saline solution was injected into the anterior chamber of the left eye with a needle and subsequently 0.5 ml of α-chymotrypsin 300 NFU/ml was injected into the posterior chamber with another needle while holding the former needle as such. After removing the needle inserted into the posterior chamber, the needle inserted into the anterior chamber was removed. The rabbit experimentally suffering from intraocular hypertension thus prepared was allowed to stand for 25 to 30 days to thereby recover from postoperative keratitis or conjunctivitis and to hold a stable intraocular hypertension. Then it was subjected to the test.
Intraocular tension was determined with a Perkin's Hand Applanation Tonometer (a product of Clement Clark, London) under anesthesia with 2% halothane, having 2 l/min of oxygen, and local anesthesia with 0.4% of benoxil.
Intraocular tension was measured five times and the mean value was recorded.
5-ISMN and 2-ISMN were employed as the test compounds and dissolved in a physiological saline solution.
A volume of 35 μl of each solution was instilled in the left eye treated with α-chymotrypsin. Each solution was administered to five rabbits according to a crossover design.

Solubility in water = format: physicochemical
[2] = 500 mg/kg intravenous, ten animals

Row | Structure (SMILES) | mortality (ddy mice; [2]) | mortality (ddy mice; 1,000 mg/kg intravenous) | Intraocular tension ([1]; 0 hr, 3.0% solution) | Intraocular tension ([1]; 1 hr, 3.0% solution) | Intraocular tension ([1]; 3 hr, 3.0% solution) | Intraocular tension ([1]; 5 hr, 3.0% solution) | Intraocular tension ([1]; 7 hr, 3.0% solution) | Intraocular tension ([1]; 9 hr, 3.0% solution) | effects of lowering intraocular tension (conclusion) [1] | solubility in water (Solubility in water) | also measured
1 | O=[N+]([O-])OC1COC2C(O)COC12 (stereo not drawn) [2-ISMN, isosorbide-2-mononitrate] | No animal died of the ten animals | No animal died of the ten animals | 31.2 ± 0.6 | 29.0 ± 0.8 | 29.1 ± 0.9 | 25.1 ± 1.4 | 24.6 ± 1.4 | 21.8 ± 1.3 | remarkable, continuous effects of lowering intraocular tension | highly soluble in water | symptoms observed (ddy mice; 500 mg/kg and 1,000 mg/kg groups, intravenous): Slight ataxia; effect of lowering intraocular tension ([1]; dose of 3%): exhibits an effect of lowering intraocular tension
2 | O=[N+]([O-])OC1COC2C(O)COC12 (stereo not drawn) [5-ISMN, isosorbide-5-mononitrate] | No animal died of the ten animals | no animal died | 30.8 ± 0.8 | 20.3 ± 0.9 | 16.4 ± 0.5 | 15.7 ± 0.5 | 16.2 ± 1.8 | 16.2 ± 2.2 | remarkable, continuous effects of lowering intraocular tension | highly soluble in water | symptoms observed (ddy mice; 500 mg/kg intravenous): Slight ataxia and restlessness; time to disappearance of symptoms (ataxia and restlessness) (ddy mice; 500 mg/kg intravenous): ≤ 30 min; Intraocular tension ([1]; 0 hr, 0.3% solution): 30.5 ± 0.8; Intraocular tension ([1]; 0 hr, 1.0% solution): 30.2 ± 0.5; Intraocular tension ([1]; 1 hr, 0.3% solution): 21.5 ± 0.5; Intraocular tension ([1]; 1 hr, 1.0% solution): 22.0 ± 1.9; Intraocular tension ([1]; 3 hr, 0.3% solution): 20.1 ± 0.9; Intraocular tension ([1]; 3 hr, 1.0% solution): 19.1 ± 0.6; Intraocular tension ([1]; 5 hr, 0.3% solution): 19.8 ± 1.2; Intraocular tension ([1]; 5 hr, 1.0% solution): 18.6 ± 0.9; Intraocular tension ([1]; 7 hr, 0.3% solution): 20.5 ± 0.7; Intraocular tension ([1]; 7 hr, 1.0% solution): 18.5 ± 1.0; Intraocular tension ([1]; 9 hr, 0.3% solution): 19.6 ± 1.8; Intraocular tension ([1]; 9 hr, 1.0% solution): 19.8 ± 1.3; dose dependence of effect of lowering intraocular tension ([1]; dose of 0.3 to 3%): would depend on the dose; duration of effect of lowering intraocular tension ([1]; dose of 0.3 to 3%): at least nine; effect of lowering intraocular tension ([1]; dose of 0.3 to 3%): remarkable effect of lowering intraocular tension
